We go through seven compounds from US8993558B2, “Compositions comprising a calcium channel blocker or a calmodulin blocker for use in the removal of hyperplastic skin lesions” (priority 2008, dated 2015).

Data set [1] deals with outwardly-rectifying chloride channel. The conditions noted are these: 50 microM; cited from earlier work.
The subject of another data set is P-glycoprotein. The conditions noted are these: hepatocyte canalicular membrane; cited from earlier work.
The test system of a further data set is genital warts. Kind of data set: Topical treatment of genital (veneral) warts in patients. Type of data set: in vivo, human. The protocol:
(§1) A person applied 0.1 ml of Trifluoperazine Topical Gel 30 mg/ml twice daily topically to several genital warts and a skin tag in the right axillary area.
A person applied 0.1 ml of Diltiazem supplied in 3 ml syringes with removable caps dissolved at a concentration of 100 mg/ml in an ointment twice daily topically to several genital warts.

Another data set has as its system skin tag. In words: Treatment of skin tags in patients (injection or topical). Type of data set: in vivo, human. The method, then: A person had multiple skin tags around their neck where they wore a gold necklace. A mixture of Diltiazem dissolved at a concentration of 100 mg/ml in an ointment was given to the patient with instructions to apply the ointment 1-2 times per day in small amounts directly to the skin tags.
as §1

Another data set relates to callouses. In words: Topical treatment of callouses in patients. It is filed as in vivo, human. The method, then:
A person had thick painful callouses over the lateral aspect of the 1st metatarsal-phallangeal joint on both feet. A mixture of Diltiazem dissolved at a concentration of 100 mg/ml in an ointment was given to the patient with instructions to apply the ointment 2-3 times per day in small amounts directly to only the callous locate on the 1st metatarsal-phallangeal joint of the left foot, and specifically not to use the ointment on the right foot.
A recreational tennis player had bilateral thickened calluses over the right and left 5th distal metatarsal head of both feet. These callouses were causing their significant pain and disability when they played tennis. The patient was treated with Trifluoperazine and Felodipine impregnated bandages.
Initially a water-proof bandage on which the mixture of Trifluoperazine 30 mg/ml Gel was applied to the adsorbent pad of the bandage with the pad being sized to cover the thickest area of the callous over the was right 5th distal metatarsal head. The pad of the waterproof bandage was applied to the callous and patient was instructed to replace the bandage 1-2 times per day with a new Trifluoperazine impregnated bandage after each shower/bath.
The patient was then given a one month supply of water-proof bandages on which the mixture of Felodipine 100 mg/ml ointment had been applied to the adsorbent pad of the bandage with the pad being sized to cover the thickest area of the callous over the was on the left 5th distal metatarsal head. The pad of the waterproof bandage was applied to the callous and patient was instructed to replaced the bandage 1-2 times per day with a new Felodipine impregnated bandage after each shower/bath.

For a further data set, the system named is plantar wart. Kind of data set: Topical treatment of plantar warts in patients. The method, then: The warts were 2-5 mm in diameter. The patient was instructed to apply the cream 2-3 times per day to the three plantar warts, Patient used the medication regularly for approximately 4 weeks.
A mixture of Diltiazem dissolved at a concentration of 100 mg/ml in an ointment was applied in small amounts directly to a single small 3 mm diameter plantar wart on sole under the 1st metatarsal-phallangeal joint on the left foot of a person. The patient applied the cream to the gauze pad of a bandage and then taped the bandage over the sole of the foot so that the Diltiazem 100 mg/ml ointment was in contact with the wart. The bandage was replaced daily after showering and this was continued for six weeks.
A person applied 0.1 ml of Trifluoperazine Topical Gel 30 mg/ml twice daily topically to a approximately […] plantar wart that was large enough to make walking painful.

Data set [2] concerns keloid. In words: Topical treatment of keloids in patients. It is filed as in vivo, human. The conditions noted are these: for keloid appearance: Example 17: 100 mg/ml ointment, keloid over mastoid process (Felodipine right, Diltiazem left); for keloid relapse: Example 17: follow up at 6 and 9 months. The method, then: A person had keloids that had formed over several areas of the donor site scar from a previous hair transplant several years ago over the occipital area of the scalp from mastoid process to mastoid process. The keloids over the mastoid process on right side were initially treated with Felodipine 100 mg/ml ointment. The patient had been given instructions to apply the Felodipine 100 mg/ml ointment several times per day to the right side only and the patient was seen weekly in follow up.

Data set [3] has as its system keloid. Kind of data set: Topical treatment of keloids in patients. It is filed as in vivo, human. The following applies: Example 17: applied for two weeks twice daily to the donor surgical sites.
A further data set deals with psoriatic plaques. In words: Topical treatment of psoriatic plaques. It is filed as in vivo, human.
For another data set, the system named is corn. The following applies: person.
Setting [4] is: Example 18: Topical Gel 30 mg/ml, four weeks of use, follow up a month later.
Setting [5] is: Example 13: 0.1 ml Topical Gel 30 mg/ml twice daily, three weeks.

Counter-ions that a name gives are not always drawn.

In the case of `CC[C@]1(O)C[C@@H]2CN(CCc3c([nH]c4ccccc34)[C@@](C(=O)OC)(c3cc4c(cc3OC)N(C)[C@H]3[C@@](O)(C(=O)OC)[C@H](OC(C)=O)[C@]5(CC)C=CCN6CC[C@]43[C@@H]65)C2)C1` [vinblastine], the “block of outwardly-rectifying chloride channel” value (from here on “block”) in data set [1] is recorded as “blocked”.

Take `COc1cccc2c1C(=O)c1c(O)c3c(c(O)c1C2=O)C[C@@](O)(C(C)=O)C[C@@H]3O[C@H]1C[C@H](N)[C@H](O)[C@H](C)O1` [daunorubicin]: in the data set with P-glycoprotein, the “transport of permanently charged amphiphilic cations” value is on record as “inhibited”. In data set [1], the “block” value is recorded as “blocked”.

As to `C=C[C@H]1C[N@@]2CC[C@H]1C[C@@H]2[C@@H](O)c1ccnc2ccc(OC)cc12` [quinidine], in the data set on P-glycoprotein, the “transport of permanently charged amphiphilic cations” value was “inhibited”.

Take `CN1CCN(CCCN2c3ccccc3Sc3ccc(C(F)(F)F)cc32)CC1.Cl.Cl` [Trifluoperazine, 10-[3-(4-Methylpiperazin-1-yl)propyl]-2-trifluoromethyl-phenothiazine dihydrochloride]: the genital wart clearing entry in the data set with genital warts (Example 18: 0.1 ml Topical Gel 30 mg/ml twice daily, person, three weeks) was “significant clearing”; in the data set on genital warts (setting [4]), “complete clearing”. Moreover, the skin tag clearing entry in the data set on skin tag (Example 18: 0.1 ml Topical Gel 30 mg/ml twice daily, right axillary area, three weeks) is listed as “significant clearing”; with skin tag (setting [4]) it was “complete clearing”. Further, in the data set on callouses (Example 14: 30 mg/ml Gel impregnated bandage 1-2 times per day, right foot, person, within one week), the “callous softness and thickness” value is “a softening and a reduction in the thickness of the callous”. For the same compound, the pain or disability result in the data set with callouses (Example 14: 30 mg/ml Gel impregnated bandage, right foot (untreated left side still painful), after two weeks) is “no longer having any pain or disability”. Moreover, the callous thickness in the data set with callouses (Example 14: 30 mg/ml Gel impregnated bandage, right foot, after two weeks) is recorded as “had thinned”. Besides, in the data set on callouses (Example 14: 30 mg/ml Gel impregnated bandage, right foot, within one week), the “pain while playing tennis” value is reported as “reduced pain while playing tennis”. Besides, the plantar wart clearing entry in the data set on plantar wart (Example 13: 0.1 ml Topical Gel 30 mg/ml twice daily, person, three weeks) is “significant clearing”. In the data set with plantar wart (setting [5]), the “irritation or erythema around the lesion” value is “no irritation or erythema”. Also, in the data set on plantar wart (setting [5]), the “pain on walking and weight bearing” value is listed as “weight bearing without pain”. Also, in the data set with plantar wart (Example 13: Topical Gel 30 mg/ml, stopped for the past two weeks, six weeks follow up), the plantar wart outcome is listed as “the wart was no longer visible”. The plantar wart recurrence result in the data set with plantar wart (Example 13: gel not used for over 3 months, seen at 4 months) was “no recurrence of the wart”.

Consider `CCOC(=O)C1=C(C)NC(C)=C(C(=O)OC)C1c1cccc(Cl)c1Cl` (stereo not drawn) [Felodipine, Ethyl methyl 4-(2,3-dichlorophenyl)-1,4-dihydro-2,6-dimethylpyridine-3,5-dicarboxylate], for which the keloid appearance result with keloid [2] (person, after 1 week) was “noticeable softening”; in the data set on keloid [2] (after 2 weeks) it was “noticeable flattening and continued softening”; with keloid [2] (by six weeks), “flattened to the level of the adjoining skin”. In addition, the keloid relapse result with keloid [2] was “no relapse of the initial cosmetic improvement”. Also, the “pain when running and playing tennis” value with callouses (Example 14: 100 mg/ml ointment impregnated bandage 1-2 times per day, left foot, after 3 weeks) is “pain free on both sides”. Besides, the “new keloid formation at FUE graft donor sites” value in the data set on keloid [3] was “no new keloid formation”. Also, the psoriatic plaque clearing result in the data set on psoriatic plaques (Example 11: Topical ointment 100 mg/ml, left hand and wrist) is on record as “significant clearing”.

Consider `COc1ccc([C@@H]2Sc3ccccc3N(CCN(C)C)C(=O)[C@@H]2OC(C)=O)cc1` [Diltiazem, (+)-cis-3-Acetoxy-5-(2-dimethylaminoethyl)-2,3-dihydro-2-(4-methoxyphenyl)-1,5-benzothiazapin-4(5H)-one hydrochloride], for which the genital wart clearing result is on record as “complete clearing of the genital warts” in the data set on genital warts (Example 19: 100 mg/ml ointment, follow up at 5 weeks) and “significant clearing” with genital warts (Example 19: 0.1 ml of 100 mg/ml ointment twice daily, person, three weeks). The skin tags remaining entry in the data set with skin tag (Example 9: 100 mg/ml ointment 1-2 times per day, multiple neck skin tags, person, one month) is recorded as “only a few small skin tags remaining”. For the same compound, the skin tag outcome in the data set on skin tag (Example 9: 100 mg/ml ointment off and on, person, after 3 months) is “completely cleared”. Moreover, the keloid appearance result in the data set with keloid [2] (person, after 1 week) is “noticeable softening”; in the data set on keloid [2] (after 2 weeks), “noticeable flattening and continued softening”; in the data set with keloid [2] (by six weeks), “flattened to the level of the adjoining skin”. Further, the keloid relapse result in the data set on keloid [2] is given as “no relapse of the initial cosmetic improvement”. Further, the callous thickness in the data set on callouses (Example 6: 100 mg/ml ointment 2-3 times per day, left foot only (right foot control unchanged), person, three weeks) is given as “dramatic reduction in the thickness of the callous”. In addition, the “new keloid formation at FUE graft donor sites” value in the data set on keloid [3] was “no new keloid formation”. Moreover, in the data set on corn (Example 7: 100 mg/ml ointment 2-3 times per day, one month), the “pain associated with wearing shoes” value was “significant reduction in pain”. Moreover, in the data set with corn (Example 7: 100 mg/ml ointment 2-3 times per day, second toe, one month), the corn thickness result is given as “noticeable reduction in the thickness of the corn”. Besides, in the data set on corn (Example 7: 100 mg/ml ointment off and on, after 6 months), the corn outcome is “the corn had dissappeared”. In addition, in the data set on psoriatic plaques (Example 11: 100 mg/ml ointment, left leg), the psoriatic plaque clearing result is recorded as “significant clearing”. The plantar wart size entry in the data set on plantar wart (Example 5: 100 mg/ml ointment on bandage daily, 3 mm wart, person, after about two weeks) was “dramatically shrunk in size”. In addition, the plantar wart outcome in the data set on plantar wart (Example 5: 100 mg/ml ointment on bandage daily, person, six weeks) is given as “not detected”. In addition, the plantar wart recurrence entry with plantar wart (Example 5: person, reassessed after 3 months) was “no evidence of recurrence of the plantar wart”.

Take `COc1cc2c(c(OC)c1OC)-c1ccc(OC)c(=O)cc1[C@@H](NC(C)=O)CC2` [colchicine]: the “block” value in data set [1] is reported as “blocked”.
